# How the values were obtained:
# Sialidase [1] = biological target: T1, Sialidase (Clostridium perfringens, UniProt P10481)
# T1 sequence (P10481 whole entry): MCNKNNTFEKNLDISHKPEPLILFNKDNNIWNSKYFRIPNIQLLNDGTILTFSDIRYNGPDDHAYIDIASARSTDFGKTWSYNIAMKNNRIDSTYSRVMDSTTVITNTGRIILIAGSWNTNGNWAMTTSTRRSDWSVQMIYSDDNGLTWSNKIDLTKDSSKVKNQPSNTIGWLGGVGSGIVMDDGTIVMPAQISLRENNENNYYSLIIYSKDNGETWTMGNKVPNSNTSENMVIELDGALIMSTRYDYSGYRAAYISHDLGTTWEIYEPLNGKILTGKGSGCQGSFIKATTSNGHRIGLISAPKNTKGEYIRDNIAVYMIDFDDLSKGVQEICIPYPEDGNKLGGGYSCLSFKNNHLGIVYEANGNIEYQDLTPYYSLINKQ
# Sialidase [2] = biological target: T1, Sialidase; remark: listed apart in the source
Structure (SMILES),IC50 (Sialidase [1]) [nM],Ki (Sialidase [2]) [nM]
CC(C)=CCc1cc2c(cc1O)OC[C@H]1c3ccc(O)c(CC=C(C)C)c3O[C@@H]21 [ERYBRAEDIN C],3350,2730
CC(C)=CCC/C(C)=C/Cc1cc2c(cc1O)OC[C@H]1c3cc(C)c(O)c(CC=C(C)C)c3O[C@@H]21 [BICOLOSIN B],1060,1200
COc1c(CC=C(C)C)c(O)cc2c1[C@@H]1Oc3c(cc(C)c(O)c3CC=C(C)C)[C@@H]1CO2 [BICOLOSIN A],320,160
COc1c(CC=C(C)C)c(O)cc2c1[C@@H]1Oc3c(ccc(O)c3CC=C(C)C)[C@@H]1CO2,90,110
CC(C)=CCc1cc2c(cc1O)OCC1c3cc(C)c(O)c(CC=C(C)C)c3OC21 (stereo not drawn) [LESPEBUERGINE G4],1840,1350
O=c1c(O)c(-c2ccc(O)c(O)c2)oc2cc(O)cc(O)c12 [QUERCETIN],10100,–
COc1cc(O)c(C/C=C(\C)CCC=C(C)C)c2c1[C@@H]1Oc3cc(O)ccc3[C@@H]1CO2 [BICOLOSIN C],170,160
